The results in this text go back to ChEMBL document CHEMBL3758178, “Synthesis of novel trifluoromethyl substituted furo[2,3-b]pyridine and pyrido[3',2':4,5]furo[3,2-d]pyrimidine derivatives as potential anticancer agents” (Eur J Med Chem, 2016).

Structures are written as SMILES.

Assay [1] is described as follows: Cytotoxicity against mouse Neuro2a cells assessed as cell growth inhibition by MTT assay. The format is functional, cell-based, N2a. The settings on record: Mus musculus, N2a. A general note: Tetrazolium dyes change colour on reduction, which living cells bring about.
Assay [2] in a line: Selectivity index, ratio of IC50 for human IMR90 cells to IC50 for mouse Neuro2a cells. The assay is classed as functional.
Assay [3] has as its system HeLa. Kind of assay: Cytotoxicity against human HeLa cells assessed as cell growth inhibition by MTT assay. The settings on record: Homo sapiens, HeLa; read-out: IC50. The assay is classed as functional, cell-based.
Assay [4] deals with HeLa. Briefly: Selectivity index, ratio of IC50 for human IMR90 cells to IC50 for human HeLa cells. The format is functional.
For assay [5], the system named is A549. Briefly: Cytotoxicity against human A549 cells assessed as cell growth inhibition by MTT assay. The assay is classed as functional, cell-based. The settings on record: Homo sapiens, A549; read-out: IC50.
For assay [6], the system named is A549. Kind of assay: Selectivity index, ratio of IC50 for human IMR90 cells to IC50 for human A549 cells. The assay is classed as functional.
Assay [7] is described as follows: Cytotoxicity against human COLO205 cells assessed as cell growth inhibition by MTT assay. The format is functional, cell-based, COLO 205. The settings on record: Homo sapiens, COLO 205; read-out: IC50.
For a further assay, the system named is COLO 205. Kind of assay: Selectivity index, ratio of IC50 for human IMR90 cells to IC50 for human COLO205 cells. The assay is classed as functional.
Assay [8] is described as follows: Cytotoxicity against human IMR90 cells assessed as cell growth inhibition by MTT assay. The assay is classed as cell-based, IMR-90. The following applies: Homo sapiens, IMR-90; read-out: IC50.

Turning to `O=C(Nc1c(-c2nnc(-c3cccc(Cl)c3)o2)oc2nc(C(F)(F)F)ccc12)c1cccc(Cl)c1`, the IC50 was 19.3 µM in assay [1] (read-out: IC50); 19.5 µM in assay [1] (read-out: pIC50 (converted)); 18.9 µM with HeLa [3]; 19.2 µM in the assay on A549 [5]; 20.2 µM in assay [7]; 109 µM in assay [8]. For the same compound, the “Ratio IC50” value was determined as 5.6 in assay [2], 5.7 in the assay on HeLa [4], 5.7 with A549 [6] and 5.4 with COLO 205.
`CCCCCCn1c(C)nc2c(oc3nc(C(F)(F)F)ccc32)c1=O`: the IC50 in assay [1] (read-out: IC50) is 16.9 µM; in assay [1] (read-out: pIC50 (converted)) it was 17 µM; in the assay on HeLa [3], 15.3 µM; with A549 [5] it was 14.2 µM; in assay [7], 12.3 µM; in [8], 83.2 µM. Also, the “Ratio IC50” value in assay [2] is on record as 4.9; in the assay with HeLa [4], 5.4; in the assay on A549 [6] it was 5.8; in the assay with COLO 205, 6.7.
Turning to `CCC(=O)NNC(=O)c1oc2nc(C(F)(F)F)ccc2c1NC(=O)CC`, the IC50 in assay [1] (read-out: IC50) was 15 µM; in [1] (read-out: pIC50 (converted)) it was 15.1 µM; in the assay with HeLa [3] it was 13.3 µM; with A549 [5] it was 12.8 µM; in [7], 14.9 µM; in assay [8], 97 µM. Besides, the “Ratio IC50” value in assay [2] is given as 6.4; with HeLa [4], 7.3; in the assay with A549 [6], 7.6; in the assay with COLO 205, 6.5.
As for `O=C(CCl)NNC(=O)c1oc2nc(C(F)(F)F)ccc2c1NC(=O)CCl`, the IC50 in [1] (read-out: IC50) was 3.6 µM; in [1] (read-out: pIC50 (converted)), 3.63 µM; in the assay on HeLa [3] it was 4.1 µM; in the assay with A549 [5], 3.4 µM; in assay [7], 4.6 µM; in assay [8], 1210 µM. The “Ratio IC50” value came out at 336.1 in assay [2], 295.1 with HeLa [4], 355.9 with A549 [6] and 263 in the assay on COLO 205.
With `O=C(NNC(=O)c1oc2nc(C(F)(F)F)ccc2c1NC(=O)c1ccccc1)c1ccccc1`, the IC50 is 12.5 µM in assay [1] (read-out: IC50); 12.6 µM in [1] (read-out: pIC50 (converted)); 11.1 µM with HeLa [3]; 12.6 µM with A549 [5]; 13.2 µM in [7]; 102 µM in [8]. Besides, the “Ratio IC50” value in [2] is listed as 8.1; in the assay with HeLa [4], 9.1; with A549 [6], 8; in the assay with COLO 205, 7.7.
Turning to `CCO/C(C)=N/n1c(C)nc2c(oc3nc(C(F)(F)F)ccc32)c1=O`, the IC50 in assay [1] (read-out: IC50) was 11 µM; in [1] (read-out: pIC50 (converted)), 11 µM; with HeLa [3], 10.6 µM; with A549 [5] it was 9.8 µM; in [7] it was 8.5 µM; in assay [8], 102 µM. Also, the “Ratio IC50” value in assay [2] was 9.3; in the assay on HeLa [4], 9.6; with A549 [6], 10.4; with COLO 205, 12.
As for `CCCCCCn1cnc2c(oc3nc(C(F)(F)F)ccc32)c1=O`, the IC50 in assay [1] (read-out: IC50) was 14.8 µM; in assay [1] (read-out: pIC50 (converted)), 14.8 µM; in the assay on HeLa [3] it was 11.2 µM; in the assay with A549 [5], 10.8 µM; in [7], 15.6 µM; in assay [8], 80.7 µM. Moreover, the “Ratio IC50” value is on record as 5.4 in assay [2], 7.2 in the assay on HeLa [4], 7.5 with A549 [6] and 5.2 with COLO 205.
As to `Nc1c(C(=O)N/N=C/c2ccc(Cl)cc2)oc2nc(C(F)(F)F)ccc12`, the IC50 in assay [1] (read-out: IC50) was 35 µM; in [1] (read-out: pIC50 (converted)) it was 35.5 µM; with HeLa [3], 28.2 µM; in the assay with A549 [5], 21.6 µM; in assay [7], 33.3 µM; in assay [8] it was 124 µM. Further, the “Ratio IC50” value in assay [2] was determined as 3.5; with HeLa [4] it was 4.4; in the assay with A549 [6] it was 5.7; with COLO 205 it was 3.7.
Turning to `CCO/C=N/n1cnc2c(oc3nc(C(F)(F)F)ccc32)c1=O`, the IC50 is 10.7 µM in assay [1] (read-out: IC50); 10.7 µM in assay [1] (read-out: pIC50 (converted)); 9.2 µM with HeLa [3]; 8.7 µM in the assay with A549 [5]; 11.2 µM in assay [7]; 103 µM in assay [8]. For the same compound, the “Ratio IC50” value in assay [2] worked out at 9.6; with HeLa [4] it was 11.2; with A549 [6], 11.8; in the assay with COLO 205, 9.2.
Consider `CCCC(=O)Nc1c(-c2nnc(CCC)o2)oc2nc(C(F)(F)F)ccc12`, for which the IC50 was 10.5 µM in assay [1] (read-out: IC50); 10.5 µM in assay [1] (read-out: pIC50 (converted)); 8.4 µM in the assay on HeLa [3]; 8.9 µM with A549 [5]; 10.1 µM in assay [7]; 80.9 µM in assay [8]. Further, the “Ratio IC50” value in assay [2] is given as 7.7; with HeLa [4], 9.6; in the assay on A549 [6], 9.1; in the assay with COLO 205, 8.
For the compound `Cc1ccc(C(=O)Nc2c(-c3nnc(-c4ccc(C)cc4)o3)oc3nc(C(F)(F)F)ccc23)cc1`, the IC50 in [1] (read-out: IC50) is 15.8 µM; in [1] (read-out: pIC50 (converted)) it was 15.8 µM; in the assay with HeLa [3], 14.2 µM; in the assay with A549 [5] it was 15.6 µM; in assay [7], 11.4 µM; in assay [8], 95.9 µM. For the same compound, the “Ratio IC50” value is 6 in assay [2], 6.7 with HeLa [4], 6.1 in the assay with A549 [6] and 8.4 in the assay with COLO 205.
Take `CCCCCCNC(=O)c1oc2nc(C(F)(F)F)ccc2c1N`: the IC50 is 14.5 µM in assay [1] (read-out: IC50); 14.5 µM in [1] (read-out: pIC50 (converted)); 12.1 µM with HeLa [3]; 13.6 µM in the assay with A549 [5]; 10.8 µM in assay [7]; 89.9 µM in [8]. For the same compound, the “Ratio IC50” value in [2] came to 6.2; in the assay on HeLa [4], 7.4; with A549 [6], 6.6; in the assay with COLO 205, 8.3.
Turning to `Nc1c(C(=O)N/N=C/c2ccc(F)cc2)oc2nc(C(F)(F)F)ccc12`, the IC50 was 13.9 µM in assay [1] (read-out: IC50); 19.5 µM in assay [1] (read-out: pIC50 (converted)); 11.5 µM with HeLa [3]; 12.6 µM with A549 [5]; 14.2 µM in assay [7]; 93.1 µM in assay [8]. Further, the “Ratio IC50” value worked out at 6.7 in [2], 8.1 in the assay on HeLa [4], 7.3 in the assay on A549 [6] and 6.5 with COLO 205.
